Test results published in US9351998B2, “Methods of nourishing animals” (MariCal, Inc., priority 2008, dated 2016).
Entries after “also recorded” stand apart in the source; their conditions may differ.

Legend:
[1] = Nonstressed pen trial, serum parameters of broiler chickens given feed additives; format: in vivo, broiler chickens (Cobb); settings: feed additive, MC0100 10 mg/kg or Mintrex Zn 250 mg/kg, Day 14
Description: Male Cobb strain broiler chickens were reared in standard minipens and fed standard feed.

mammalian CaSR = target: T1, mammalian CaSR (Homo sapiens, UniProt P41180); test: FURA2 ratio imaging fluorimetry of HEK cells stably expressing mammalian CaSR; format: cell-based
T1 construct: expressed in transfected cells; host or cells: HEK cells stably expressing the mammalian CaSR
T1 sequence (P41180 20-1078): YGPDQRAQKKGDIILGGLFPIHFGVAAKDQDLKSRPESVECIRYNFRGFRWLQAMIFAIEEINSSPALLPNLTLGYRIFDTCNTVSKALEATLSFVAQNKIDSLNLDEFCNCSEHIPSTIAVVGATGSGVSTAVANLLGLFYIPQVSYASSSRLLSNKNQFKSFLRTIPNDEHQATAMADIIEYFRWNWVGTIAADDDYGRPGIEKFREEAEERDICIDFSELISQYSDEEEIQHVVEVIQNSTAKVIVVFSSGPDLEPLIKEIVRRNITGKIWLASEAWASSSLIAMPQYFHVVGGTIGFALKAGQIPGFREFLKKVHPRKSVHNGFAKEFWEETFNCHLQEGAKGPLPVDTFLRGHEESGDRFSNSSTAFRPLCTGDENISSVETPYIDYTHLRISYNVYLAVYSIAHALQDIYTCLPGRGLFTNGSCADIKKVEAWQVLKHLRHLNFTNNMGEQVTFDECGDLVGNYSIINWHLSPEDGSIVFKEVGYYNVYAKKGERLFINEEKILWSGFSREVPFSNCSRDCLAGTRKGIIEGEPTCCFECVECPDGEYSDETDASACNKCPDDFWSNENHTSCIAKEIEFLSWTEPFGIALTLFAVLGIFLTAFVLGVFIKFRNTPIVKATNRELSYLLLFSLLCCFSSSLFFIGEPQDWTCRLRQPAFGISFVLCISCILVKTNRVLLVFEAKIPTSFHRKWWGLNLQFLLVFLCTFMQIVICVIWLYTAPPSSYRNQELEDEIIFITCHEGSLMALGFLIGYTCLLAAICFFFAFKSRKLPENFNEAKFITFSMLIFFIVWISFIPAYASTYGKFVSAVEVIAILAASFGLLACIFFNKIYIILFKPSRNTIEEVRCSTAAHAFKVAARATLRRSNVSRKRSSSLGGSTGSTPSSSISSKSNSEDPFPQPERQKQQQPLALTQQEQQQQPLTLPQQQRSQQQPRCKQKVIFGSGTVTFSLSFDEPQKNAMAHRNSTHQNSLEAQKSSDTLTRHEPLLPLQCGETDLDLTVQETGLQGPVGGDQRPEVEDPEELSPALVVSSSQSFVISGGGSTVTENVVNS
Description: All methods and equipment utilized to perform experiments on HEK cells have been reported previously (Gama, L. and Breitwieser, G. E. 1998. A carboxyl-terminal domain controls the cooperativity for extracellular Ca2+ activation of the human calcium sensing receptor. A study with receptor-green fluorescent protein fusions. J. Biol. Chem. 273, 29712-29718; Bai, M., Quinn, S., Trivedi, S., Kifor, 0., Pearce, S. H., Pollak, M. R., Krapcho, K., Hebert, S. C. and Brown, E. M. 1996. Expression and characterization of inactivating and activating mutations in the human Ca2+o-sensing receptor. J. Biol. Chem. 271, 19537-19544). Untransfected HEK cells or, alternatively, cells transfected and expressing CaSR protein were cultured in Dulbecco's Modified Eagle Medium containing 10% fetal bovine serum and 1% penicillin-streptomycin in 75 cm^2 flasks until they reached confluence. Media was removed from the flasks and cells were loaded by exposure to Loading Buffer (125 mM NaCl, 4 mM KCl, 1.0 mMCaCl2, 1.0 mM MgCl2, 1 mM NaH2PO4, 20 mM HEPES, 1 gm/liter bovine serum albumin, and 1 gm/l glucose, pH ˜7.4, osmolality ˜285) containing 4.1 micromolar FURA2-AM (Molecular Probes Inc. Eugene, Oreg.) for 2 hr. Cells were then scraped from the surface of the flask using a standard cell scraper (Costar 3010, Corning Inc.). Cells were then pelleted from the suspension by low speed centrifugation to remove loading buffer and rinsed twice to remove extracellular FURA2 dye by two sequential suspensions and pelleting steps using low speed centrifugation. Immediately prior to the start of the experiment, cells were resuspended in various experimental buffers for analyses as described below. The Standard Experimental Buffer used for many studies was composed of: 125 mM NaCl, 4 mM KCl, 0.5 mMCaCl2, 0.5 mM MgCl2, 20 mM HEPES, 1 g/l glucose, pH ˜7.4, osmolality ˜285. All other buffers were variations on this basic composition where specific components within the Standard Experimental Buffer were varied while the remaining components were held constant.
Cell suspensions consisting of a total volume of 3 ml were analyzed in a PTI fluorimeter (PTI Model 814 Photomultiplier Detection System equipped with SC-500 Shutter Controller and PTI Driver and Analysis Software) within approximately 20 min after exposure to experimental buffers. Data was acquired using standard ratio image analysis as described previously using a data acquisition rate of 1.3 sec. for 500 or 1000 second intervals.
In selected experiments, the detergent Triton X-100 was added in order to lyse the cells and quantify differences in FURA2 ratio fluorescence. Triton X-100 was added to the cells to obtain a maximal fluorescence signal from the FURA2 for purposes of quantification.
Experiments on HEK cells were performed generally as described in Example 6 herein. […] Subsequent addition of Ca2+ to a final concentration of 5 mM produced an additional response (see FIG. 26A). No response was observed upon addition of 0.025% Mintrex Zn after the addition of experimental buffer (EB) (see FIG. 26B). […] In addition, the magnitude of the CaSR response to 5 mM Ca2+ was diminished by previous addition of Mintrex Zn.
For mammalian CaSR experiments, two individual aliquots from a single pool of HEK cells that stably express the recombinant mammalian CaSR protein were used for ratio imaging fluorimetry assays of CaSR activation generally as described in Example 6 herein. Addition of Ca++ to a final concentration of 2.5 mM produced a CaSR response that was also followed by responses after subsequent additions of 0.025% Zn proteinate followed by Ca++ to a final concentration of 7.5 mM (FIG. 29B). […] There was also a response to a subsequent dose of Ca++ to a final concentration of 7.5 mM (FIG. 29B). In both tracings, the detergent Triton X-100 was added as a final step to lyse the cells.
Experiments on HEK cells were performed generally as described in Example 6 herein. […]

Question: Which “mean serum calcium concentration compared to Control” value [1] does the source give for `COc1cccc([C@@H](C)NCCCc2ccccc2)c1` [MC0100] here?
Answer: The value was “significant reductions”.

Question: And the “effect of prior modulator on CaSR response to 0.025% Zn Proteinate” value (mammalian CaSR; 1 micromolar MC 0100)?
Answer: Its value is “increased the response”.

Question: What about the “effect of prior modulator on CaSR response to 0.025% Mintrex Zn” value (mammalian CaSR; 1 micromolar MC0100 added before Mintrex Zn) of the same compound?
Answer: The value was “responded to 0.025% Mintrex Zn only after the addition of 1 micromolar MC0100”.

Question: And the “CaSR response to the modulator itself” value (mammalian CaSR; MC0100 at final 1 micromolar)?
Answer: The value was “very small CaSR response; also recorded: did not itself produce a large response”.

Question: What about the “CaSR response to stepwise additions” value (mammalian CaSR; after addition of 2.5 mM Ca++ (FIG. 37)) of the same compound?
Answer: The value was “increased responses”.

Question: What about the “effect on Mintrex Zn-induced reduction of CaSR response to 5 mM Ca2+” value (mammalian CaSR; previous addition of 1 micromolar MC0100) of the same compound?
Answer: The value was “partially restored”.
